Test results from publication PMC9920598, “Impact of Starch Binding Domain Fusion on Activities and Starch Product Structure of 4-α-Glucanotransferase” (Molecules, 2023).

Legend:
SBDGA-TuαGT = tested on: T1, SBDGA-TuαGT; experiment: glucose release (GOPOD), Michaelis-Menten fit; assay type: biochemical, Thermoproteus uzoniensis; settings: disproportionation (maltotriose donor and acceptor); 70 °C, pH 7.0, 50 mM Hepes, 150 mM NaCl; 10 nM enzyme; read-out: SBDGA-TuaGT
T1 construct: gene malQ; E. coli; 69,562 Da; with Glucoamylase (Aspergillus niger), C-terminal CBM20 domain SBDGA
Description: glucose release (GOPOD), Michaelis-Menten fit on SBDGA-TuαGT

SBDSt1-TuαGT = tested on: T2, SBDSt1-TuαGT; experiment: glucose release (GOPOD), Michaelis-Menten fit; assay type: biochemical, Thermoproteus uzoniensis; settings: disproportionation (maltotriose donor and acceptor); 70 °C, pH 7.0, 50 mM Hepes, 150 mM NaCl; 10 nM enzyme; read-out: SBDSt1-TuaGT
T2 construct: gene malQ; E. coli; 68,272 Da; with 4-alpha-glucanotransferase DPE2 (Solanum tuberosum), first CBM20 domain SBDSt1
Description: glucose release (GOPOD), Michaelis-Menten fit on SBDSt1-TuαGT

Structure (SMILES): OC[C@H]1O[C@H](O[C@H]2[C@H](O)[C@@H](O)[C@@H](O[C@H]3[C@H](O)[C@@H](O)C(O)O[C@@H]3CO)O[C@@H]2CO)[C@H](O)[C@@H](O)[C@@H]1O (some centres unmarked) [maltotriose]
- Km (SBDGA-TuαGT): 1.4 ± 0.1 µM
- Km (SBDSt1-TuαGT): 3.5 ± 0.2 µM
